Data on one molecule can be found in patent publication US20110263478A1, “SUR1 INHIBITORS FOR THERAPY” (priority 2008, published 2011).

Molecules are shown by their SMILES.

The subject of series [1] is rats with percussion-TBI. Briefly: Percussion-TBI rats: neurobehavioral function (SFU, SVE). Format: in vivo, rat. The source says: (§1) Young adult male Long-Evans rats, 240-280 gm, were studied. Rats were anesthetized (Ketamine and Xylazine) and physiological parameters including temperature and blood gases were maintained within appropriate physiological ranges. With the head fixed in a stereotaxic frame, a 6-mm circular craniectomy was created abutting the sagittal and lambdoidal sutures. A posterior location was chosen to emphasize damage to underlying hippocampus (Vink et al., 2001; Floyd et al., 2002). […] Sham controls underwent craniectomy without percussion.
Spontaneous forelimb use (SFU) was quantified and spontaneous vertical exploration (SVE) was quantified during 7 days post-TBI. SFU measures sensorimotor asymmetry (Schallert et al., 2000) whereas SVE measures not only vestibulomotor function but also time spent in exploratory activity.

Series [2] can be described thus: Testing of glibenclamide doses for effect on serum glucose in rats. Format: in vivo, rat. To be noted: dose1-dose4 (loading 2.5-20 μg/kg i.p., infusion 75-600 ng/hr s.q.); uninjured, stroke and SCI rats.
Series [3] has as its system rats with spinal cord injury (SCI). The following applies: rodent model of SCI (Simard et al., 2007); cited from earlier work.
Series [4] relates to rats with percussion-TBI. Briefly: Percussion-TBI rats: extravasated blood (progressive secondary hemorrhage). Format: in vivo, rat.
From the text: as §1

For series [5] the following is noted: cited from earlier work.
The test system of series [6] is rats with spinal cord injury (SCI). Briefly: Rat cervical SCI model: neurobehavioral assessment (inclined plane, paw placement, rearing). Format: in vivo. Here is the method:
(§2) SCI injury model. This study was performed in accordance with the guidelines of the Institutional Animal Care and Use Committee. Adult female Long-Evans rats (275-350 gm) were anesthetized (Ketamine, 60 mg/kg plus Xylazine, 7.5 mg/kg, i.p.). The dura at C4-5 was exposed via a left hemilaminectomy. A hemi-cervical spinal cord contusion was created using a blunt force impactor (1.3-mm impactor head driven by a 10 gm weight dropped vertically 25 mm) (Soblo sky et al., 2001; Gensel et al., 2006). After SCI, animals were given 10 ml of glucose-free normal saline s.q. Rectal temperature was maintained at ˜37° C. using a servo-controlled warming blanket.
For in vivo gene suppression of SUR1, we used oligodeoxynucleotides that were phosphorothioated at 4 distal bonds to protect against endogenous nucleases (35).
Neurobehavioral assessment. All measurements were performed by blinded evaluators. Performance on the inclined plane was evaluated as described (Rivlin and Tator, 1977). To assess paw placement and vertical exploration (rearing) (Nikulina et al., 2004) animals were videotaped while in a translucent cylinder (19×20 cm). Rearing was quantified as the number of seconds spent with both front paws elevated above shoulder-height during a 3-min period of observation.

Series [7] in a line: Tail tip bleeding time in uninjured rats. Format: in vivo, rat. To be noted: for effect on bleeding time: same infusion dose. Here is the method: Bleeding times were measured using tail tip bleeding as described (Lorrain et al., 2003).
For series [8], the system named is rats with percussion-TBI. The experiment in a line: Percussion-TBI rats: lesion size and hippocampal histology. Format: in vivo, rat. The following applies: 7 days post-TBI.
From the text: as §1

Series [9] relates to rats with spinal cord injury (SCI). The experiment in a line: Rat cervical SCI model: histology, capillaries and lesion size. In kind it is in vivo. Here is the method:
as §2, with “blanket. Blood gases and serum glucose 10-15 min post-SCI were: pO2, 95±6 mm Hg; pCO2, 46±3 mm Hg; pH, 7.33±0.01; glucose 258±17 mg/dl in controls and pO2, 96±7 mm Hg; pCO2, 45±2 mm Hg; pH, 7.37±0.01; glucose 242±14 mg/dl in glibenclamide-treated animals.” for “blanket.”
(§3) Drug delivery. […] During the course of the project, slightly different formulations of drug were used, with the best results obtained using stock solutions made by placing 50 mg (or 25 mg) of drug into 10 ml DMSO, and infusion solutions made by placing 400 μl (or 800 μl) stock into 4.6 ml (or 4.2 ml) unbuffered saline (0.9% NaCl) and adjusting the pH to ˜8.5 using 0.1 N NaOH.
Lesion size. At 7 d post-SCI, cords were paraffin sectioned and stained with H&E. Lesion volumes were calculated from lesion areas measured on serial sections every 250 μm.
Immunohistochemistry. Cryosections were immunolabeled (Chen et al., 2003; Simard et al., 2006) using primary antibodies directed against SUR1 (Santa Cruz, C-16; 1:200; 1 h at RT, 48 h at 4° C.), SUR2 (Santa Cruz, H-80; 1:200; 1 h at RT, 48 h at 4° C.), GFAP (Sigma, C-9205; 1:500), and vimentin (Sigma, monoclonal CY3 conjugated; 1:100). Quantitative immunofluorescence was performed as described (Gerzanich et al., 2003).

For series [10] the following is noted: rat, in vivo. Here is the method: as §2, with “blanket. Blood gases and serum glucose 10-15 min post-SCI were: pO2, 95±6 mm Hg; pCO2, 46±3 mm Hg; pH, 7.33±0.01; glucose 258±17 mg/dl in controls and pO2, 96±7 mm Hg; pCO2, 45±2 mm Hg; pH, 7.37±0.01; glucose 242±14 mg/dl in glibenclamide-treated animals.” for “blanket.”
as §3

[11] abbreviates: 1, 3 and 7 d post-SCI, vs vehicle.

`COc1ccc(Cl)cc1C(=O)NCCc1ccc(S(=O)(=O)NC(=O)NC2CCCCC2)cc1` [glibenclamide]: in the series with rats with percussion-TBI [1] (1, 2 and 7 days post-TBI, vs controls), the “spontaneous vertical exploration (SVE)” value was “significantly greater SVE scores”. Also, the “spontaneous use of forelimb contralateral to injury” value with rats with percussion-TBI [1] (2 days post-TBI, controls 3.5±3.5%, P=0.05) is listed as 16.5±3.4%. The “effect of doses on serum glucose” value in [2] is “only the highest are hypoglycemogenic, but only mildly so”. Further, the “reduction in lesion volume after SCI” value in [3] is given as 3 fold. Moreover, in the series on rats with percussion-TBI [4] (6 and 24 hr post-TBI, vs vehicle), the “extravasated blood at later times” value is listed as “prevented further increases in blood”. In addition, the “volume of blood in brain homogenate” value in the series with rats with percussion-TBI [4] (½ hr post-TBI) is recorded as “did not affect”. Besides, in [5], the pKa is given as 6.3. In series [6] (setting [11]), the “performance on inclined plane” value is reported as “significantly better performance” and the “vertical exploratory behavior (rearing)” value is on record as “significantly better performance”. Moreover, the “vertical exploration (rearing), time during 3-min observation” value in series [6] (1 d post-SCI, 200 ng/h s.q.) is 42 ± 7 s. In addition, the ipsilateral paw placement entry in series [6] (1 d post-SCI, vs vehicle) was “significantly better performance”. For the same molecule, the general mobility entry in series [6] (post-SCI, vs vehicle-treated rats generally not mobile) was “typically ambulatory and often exhibited proficient exploratory behavior”. For the same molecule, the tail bleeding time in series [7] (n=3-5, P=0.6) turned out to be 21.5 ± 3.1 s. Further, the “effect on bleeding time” value in series [7] is reported as “no effect”. In addition, the “effect on bleeding time” value in [7] (listed as Glibenclamide) is “did not affect”. For the same molecule, in the series on rats with percussion-TBI [8], the “hippocampus on Nissl stained sections” value was “sparing of hippocampus, including sparing of neurons in CA1, CA3 and dentate gyrus regions”. Also, the “lesion area on coronal sections at epicenter of injury” value in the series with rats with percussion-TBI [8] (control 8.2±1.3, P=0.025) turned out to be 4.4±0.8 mm^2. The “lesion, reactive gliosis and myelin (GFAP and myelin labeling)” value in series [9] (24 h post-SCI, vs controls) was “smaller lesions, less reactive gliosis and better myelin preservation”. The “lesion volume, reduction compared to controls” value in series [9] (7 d post-SCI) came to 3 fold. The “vimentin(+) capillaries in region of injury” value in [9] (post-SCI, vs controls) is “the capillaries were elongated and appeared more normal”. In series [10], this molecule had a serum glucose of 242 ± 14 mg/dL.

Broadly, the pKa is the negative logarithm of the acid dissociation constant.
